Source: patent publication US20060178424A1, “Preventing atrial fibrillation (af) with the use of stain drugs” (priority 2003, published 2006)
Entries after “also recorded” stand apart in the source; their conditions may differ.

Experiments:
[1] = tested on: atrial tachycardia-induced remodeling; conditions: dog, cited from earlier work; for Prevention of effects of 1-week atrial tachycardia: literature refs 7-9
[2] = tested on: atrial tachypaced dogs (atrial tachycardia-induced remodeling); experiment: Final open-chest electrophysiological study after atrial tachypacing; format: in vivo, dog
Excerpt: (§1) Unipolar leads were inserted through jugular veins into the right ventricular (RV) apex and right atrial (RA) appendage under fluoroscopic guidance and connected to pacemakers (Medtronic) in subcutaneous pockets in the neck. A bipolar electrode was also inserted into the RA for atrial stimulation and recording during serial electrophysiological study (EPS). AV block was created by radiofrequency catheter ablation to control ventricular response during atrial tachypacing (ATP) and the RV pacemaker was programmed to pace at 80 bpm.
(§2) After 24 hours for recovery, a baseline closed-chest EPS was performed under anesthesia with ketamine, diazepam, and isoflurane, and then ATP (400 bpm) was initiated. Closed-chest EPS was repeated at 2,4 and 7 days of ATP and a final open-chest EPS was performed on day 8 under anesthesia with morphine and α-chloralose.
(§3) Body temperature was maintained at 37° C., and a femoral artery and both femoral veins were cannulated for pressure monitoring and drug administration. A median sternotomy was performed, and bipolar electrodes were hooked to the RA and left atrial (LA) appendage for recording and stimulation. A programmable stimulator (Digital Cardiovascular Instruments) was used to deliver twice-threshold currents. […] AF duration was assessed as described above and AF vulnerability was determined as the percentage of atrial sites at which AF could be induced by single extrastimuli.

[3] = General properties (body weight, hemodynamic variables) at open-chest study; format: in vivo, dog; conditions: mean±SEM; for Body weight: ATP with oral treatment
Excerpt: as §1, §3

[4] = tested on: atrial tachypaced dogs (atrial tachycardia-induced remodeling); experiment: Serial closed-chest electrophysiological study during 7-day atrial tachypacing (400 bpm); format: in vivo, dog; conditions: 7-day ATP, in words
Excerpt: as §1, §2

| SMILES | Prevention of effects of 1-week atrial tachycardia [1] | Attenuation of ERP changes caused by 48-hour atrial tachycardia ([1]; Carnes et al) | ERP values as a function of cycle length versus ATP-only dogs ([2]; RA appendage, final open-chest study, in words) | AF requiring cardioversion for termination, share of dogs ([2]; following ATP, ATP-only 57%) | Effect on tachypacing-induced ERP shortening and AF promotion (remodeling) ([2]; one week of atrial tachypacing, in words) | Diastolic BP [3] | HR (heart rate) [3] | LAP (left atrial pressure) [3] | LVEDP (left ventricular end-diastolic pressure) [3] | LVSP (left ventricular systolic pressure) [3] | Systolic BP [3] | Body weight [3] | Atrial tachycardia-induced AF promotion (AF duration progression) versus ATP-only [4] |
| --- | --- | --- | --- | --- | --- | --- | --- | --- | --- | --- | --- | --- | --- |
| COCC(=O)O[C@]1(CCN(C)CCCc2nc3ccccc3[nH]2)CCc2cc(F)ccc2[C@@H]1C(C)C [mibefradil] | prevent the effects of 1-week atrial tachycardia in the dog |  |  |  |  |  |  |  |  |  |  |  |  |
| O=C1O[C@H]([C@@H](O)CO)C(O)=C1O [vitamin C] |  | effectiveness | No significant differences | 33% | unaffected; also recorded: not altered; also recorded: not shared; also recorded: not observed | 41 ± 6 mm Hg | 145 ± 9 bpm | 5 ± 1 mm Hg | 6 ± 1 mm Hg | 107 ± 8 mm Hg | 107 ± 8 mm Hg | 32 ± 2 kg | not significantly different from ATP-only dogs |
| CCCCc1oc2ccccc2c1C(=O)c1cc(I)c(OCCN(CC)CC)c(I)c1 [amiodarone] | prevent the effects of 1-week atrial tachycardia in the dog |  |  |  |  |  |  |  |  |  |  |  |  |
| CCC(C)(C)C(=O)O[C@H]1C[C@@H](C)C=C2C=C[C@H](C)[C@H](CC[C@@H]3C[C@@H](O)CC(=O)O3)[C@H]21 [simvastatin] |  |  |  |  |  | 60 ± 7 mm Hg | 169 ± 6 bpm | 8 ± 1 mm Hg | 9 ± 1 mm Hg | 127 ± 5 mm Hg | 131 ± 4 mm Hg | 29 ± 2 kg |  |
